# In patent US20220017484A1, “INHIBITOR OF BRUTON TYROSINE KINASE” (BEIJING RECIPROCAPHARMACEUTICALS CO., LTD., priority 2018, published 2022):
# Columns and labels:
# Btk [1] = biological target: T1, Btk (Homo sapiens, UniProt Q06187); experiment: Covalent inhibition assay on BTK (fluorescent probe labeling, SDS-PAGE scanning); format: binding; parameters: purchased carna 08-180; conditions: for binding mode to recombinant BTK: 0.5 μM and 5 μM, 1 h incubation; for inhibition of the labeling of BTK by the fluorescent probe: 1 h incubation with BTK, then probe 1 h, 1% DMSO control
# Description: FIG. 1 is a graph showing the scanning results from SDS-PAGE electrophoresis after the compounds of Examples 23 and 26 at two concentrations (0.5 μM and 5 μM) were incubated with BTK for 1 h, and then a probe prepared according to Sci. Rep. 2015, 5, 16136 was added and incubated for 1 h.
# This assay was carried out using the compounds of Examples 23 and 26. The reagents used are as follows:
# BTK kinase: brand name: carna, product number: 08-180, concentration: […];
# BTK enzyme activity buffer: 1× kinase buffer+1 mM DTT+5 mM MgCl2+50 nM SEB;
# BTK probe (100 μM): prepared according to Sci. Rep. 2015, 5, 16136 (Pan Zhengying, et al.);
# The compounds of Examples 23 and 26: prepared as described above, and prepared at two concentrations (0.5 μM/5 μM) respectively.
# The steps of the assay are as follows:
# 1. The sample order was 1% DMSO, 0.5 μM compound of Example 23, 5 μM compound of Example 23, 0.5 μM compound of Example 26, and 5 μM compound of Example 26. The compounds, BTK, probe and 2× loading buffer were added to 5 200 μl EP tubes using a pipette.
# 2. The final concentrations of the compounds of Examples 23 and 26 were 0.5 μM and 5 μM, and the control group was 1% DMSO. The compounds were first prepared with DMSO to 100× the above final concentrations, and diluted ×40 with BTK enzyme activity Buffer. For the reaction, 4 μl/well of the compound was added to the 10 μl system using a pipette to reach its final concentration. For 1% DMSO, the stock solution was diluted ×40 with BTK enzyme activity Buffer.
# 3. The BTK (200 ng/μl) was diluted to 10 ng/μl, and the probe (100 μM) was diluted to 2.5 μM. They were placed on ice for later use, and the probe was protected from light.
# 4. To each tube was added 4 μl of BTK, followed by 4 μl of the Example compound. After 1 h incubation, the probe was added, and then incubated for 1 h in the dark.
# 5. 2× loading buffer was prepared. After the probe was incubated, 10 μl of the 2× loading buffer was added to each well, mixed well, and heated at 100° C. for 10 min to prepare the sample.
# 6. 10 μl (containing 20 ng of BTK, and 0.5 μM probe) was loaded. Scanning was performed after SDS-PAGE. The order of samples was the order of spotting.
# If it is a compound that reversibly binds to BTK, the probe would bind to the released BTK during 1 h incubation with a mixture of the compound and BTK, leading to a fluorescent band.
# Btk [2] = biological target: T1, Btk; experiment: Analysis of in vitro inhibitory activity of Btk (cell-free TR-FRET kinase assay); format: biochemical; conditions: for IC50: cell-free TR-FRET, ATP at Km, 1 h, read-out: Efficacy (Btk IC50); for inhibitory effects against Btk (in words): summary of Table 1 efficacy data
# Description: In a cell-free kinase assay, the method described below or a similar method was used to determine the half inhibitory concentration (IC50) of the compound of the present invention on Btk.
# Btk kinase activity was determined using a time-resolved fluorescence resonance energy transfer (TR-FRET) methodology. Measurements were performed in a reaction volume of 50 μL using 96-well assay plates. […] The reaction was quenched by the addition of 1.2 equivalents of EDTA (relative to divalent cation) in […] of 1× Lance buffer (Perkin-Elmer). Streptavidin-APC (Perkin-Elmer) and Eu-labeled p-Tyr100 antibody (Perkin-Elmer) in 1× Lance buffer were added in a volume of 25 μL to give final concentrations of 100 nM and 2.5 nM, respectively. The mixture was allowed to incubate for 1 h. The TR-FRET signal was measured on a multimode plate reader at an excitation wavelength (λEx) of 330 nm and detection wavelengths (λEm) of 615 and 665 nm. The activity was determined by the ratio of fluorescence at 665 nm to that at 615 nm. For each compound, the enzyme activity was measured in the presence of different concentrations of the compound. Negative control reactions were performed in the absence of inhibitor in replicates of six, and two no-enzyme controls were used to determine baseline fluorescence levels. IC50 was obtained by fitting using the program Batch Ki (Kuzmic, et al. (2000), Anal. Biochem. 286:45-50).
# The Example compounds 1-50 of the present invention were synthesized according to the above Synthetic Schemes I to VII. In the analysis of in vitro inhibitory activity of Btk, the IC50 values of the Example compounds 1-50 of the present invention were determined. The IC50 values are given according to the interval of the IC50 value, where “+++” means IC50<100 nM; “++” means 100 nM≤IC50<1000 nM; and “+” means 1000 nM≤IC50<10000 nM.
# OCI-LY7 cells = experiment: Cell viability assay (CellTiter-Glo, 72 h); format: cell-based; conditions: Homo sapiens, read-out: Results from inhibition of OCI-LY7 cells (IC50)
# Description: An in vitro cell viability assay was conducted using the compounds of Examples 1-50 following the steps below:
# 1. After OCI-LY7 cells were recovered, they were cultured at 37° C., 5% CO2, and 95% humidity.
# 2. For the compounds of Examples 1-50, 8 compound solutions at different concentrations were prepared, respectively. 50 μL of the compound solution at each concentration was added to a 96-well black plate.
# 3. The cell concentration was adjusted to about 30,000 cells/mL. 100 μL of cell suspension was added to the 96-well plate, and mixed well. The final cell density was about 3,000 cells/well.
# 4. The 96-well plate was placed at 37° C., 5% CO2, and 95% humidity for 72 h.
# 5. The cell survival rate was measured by the method of CellTiter-Glo® Luminescent Cell Viability Assay (Promega, Cat #G7572). The fluorescence data were read on a microplate reader (EnVision™, a multi-function microplate detector, PerkinElmer).
# 6. The obtained fluorescence data were analyzed using GraphPad Prism software. The cell survival rate was calculated for each example compound at each concentration, and the IC50 interval of each example compound was obtained.
# T1 sequence (Q06187 whole entry): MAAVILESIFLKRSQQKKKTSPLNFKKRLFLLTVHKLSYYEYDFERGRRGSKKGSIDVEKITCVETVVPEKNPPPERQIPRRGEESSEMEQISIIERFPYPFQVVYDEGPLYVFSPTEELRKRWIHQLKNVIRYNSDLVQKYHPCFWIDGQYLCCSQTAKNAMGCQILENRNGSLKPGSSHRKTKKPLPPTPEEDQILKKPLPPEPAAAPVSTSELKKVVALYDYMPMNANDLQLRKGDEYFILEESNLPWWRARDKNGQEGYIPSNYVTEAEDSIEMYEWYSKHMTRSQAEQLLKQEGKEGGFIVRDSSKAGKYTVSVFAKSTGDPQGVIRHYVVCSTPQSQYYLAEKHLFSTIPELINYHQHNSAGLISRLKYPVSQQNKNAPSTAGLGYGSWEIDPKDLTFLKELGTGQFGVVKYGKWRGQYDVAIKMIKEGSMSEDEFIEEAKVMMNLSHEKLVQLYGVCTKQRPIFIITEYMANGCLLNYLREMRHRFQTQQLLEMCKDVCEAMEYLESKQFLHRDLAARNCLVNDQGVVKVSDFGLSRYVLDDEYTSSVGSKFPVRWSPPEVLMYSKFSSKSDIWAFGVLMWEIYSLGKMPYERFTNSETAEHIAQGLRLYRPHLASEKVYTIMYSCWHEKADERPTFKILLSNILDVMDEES
SMILES,binding mode to recombinant BTK (Btk [1]),inhibition of the labeling of BTK by the fluorescent probe (Btk [1]; compound 0.5 μM),inhibition of the labeling of BTK by the fluorescent probe (Btk [1]; compound 5 μM),IC50 (Btk [2]) [nM],IC50 (OCI-LY7 cells) [nM],inhibitory effects against Btk (in words) (Btk [2])
C=CC(=O)N(C)c1cccc(Nc2ncc3cc(-c4c(C)cc[nH]c4=O)ccc3n2)c1 [Example 23],irreversibly covalently binds,completely inhibit,completely inhibit,< 100,< 500,particularly excellent inhibitory effects
C=CC(=O)N(CC)c1cccc(Nc2ncc3cc(-c4c(C)cc[nH]c4=O)ccc3n2)c1 [Example 26],irreversibly covalently binds,completely inhibit,completely inhibit,< 100,< 500,particularly excellent inhibitory effects
C=CC(=O)N(c1cccc(Nc2ncc3cc(-c4c(C)cc[nH]c4=O)ccc3n2)c1)C(C)C [Example 27],,,,< 100,< 500,
C=CC(=O)N(CC)c1cccc(Nc2ncc3cc(-c4c(C)ccn(C(=O)OCC)c4=O)ccc3n2)c1 [Example 28],,,,< 100,< 500,
C=CC(=O)N(CC)c1cccc(Nc2ncc3cc(-c4c(C)ccn(C(C)=O)c4=O)ccc3n2)c1 [Example 29],,,,100 to 1000,500 to 2500,
C=CC(=O)N(CC)c1cccc(Nc2ncc3cc(-c4c(C)ccn(C(=O)N(C)C)c4=O)ccc3n2)c1 [Example 30],,,,100 to 1000,≥ 2500,
C=CC(=O)N(CC)c1cccc(Nc2ncc3cc(-c4c(C)ccn(C(=O)OCc5ccccc5)c4=O)ccc3n2)c1 [Example 31],,,,< 100,< 500,
C=CC(=O)N(CC)c1cccc(Nc2ncc3cc(-c4c(C)ccn(-c5ncco5)c4=O)ccc3n2)c1 [Example 32],,,,100 to 1000,500 to 2500,
CC#CC(=O)N(CC)c1cccc(Nc2ncc3cc(-c4c(C)cc[nH]c4=O)ccc3n2)c1 [Example 33],,,,< 100,< 500,particularly excellent inhibitory effects
CCN(C(=O)/C=C/CN(C)C)c1cccc(Nc2ncc3cc(-c4c(C)cc[nH]c4=O)ccc3n2)c1 [Example 34],,,,< 100,500 to 2500,particularly excellent inhibitory effects
C=C(F)C(=O)N(CC)c1cccc(Nc2ncc3cc(-c4c(C)cc[nH]c4=O)ccc3n2)c1 [Example 35],,,,< 100,< 500,
C=CC(=O)Nc1cc(Nc2ncc3cc(-c4c(C)cc[nH]c4=O)ccc3n2)ccc1OC [Example 36],,,,< 100,< 500,
C=CC(=O)N(CC)c1cc(Nc2ncc3cc(-c4c(C)cc[nH]c4=O)ccc3n2)ccc1OC [Example 37],,,,< 100,< 500,particularly excellent inhibitory effects

# Now from value to compound, other results behind:
binding mode to recombinant BTK (Btk [1]),inhibition of the labeling of BTK by the fluorescent probe (Btk [1]; compound 0.5 μM),inhibition of the labeling of BTK by the fluorescent probe (Btk [1]; compound 5 μM),IC50 (Btk [2]) [nM],IC50 (OCI-LY7 cells) [nM],SMILES,inhibitory effects against Btk (in words) (Btk [2])
,,,< 100,< 500,C=CC(=O)N(CCOC)c1cccc(Nc2ncc3cc(-c4c(C)cc[nH]c4=O)ccc3n2)c1 [Example 38],particularly excellent inhibitory effects
,,,< 100,500 to 2500,C=CC(=O)N(CC)c1cc(Nc2ncc3cc(-c4c(C)cc[nH]c4=O)ccc3n2)ccc1F [Example 39],
,,,< 100,500 to 2500,C=CC(=O)N(CC)c1cc(Nc2ncc3cc(-c4c(C)cc[nH]c4=O)ccc3n2)ccc1C [Example 40],
,,,< 100,< 500,Cc1cc[nH]c(=O)c1-c1ccc2nc(Nc3ccc4c(c3)NCCO4)ncc2c1 [Example 41],
,,,< 100,500 to 2500,C=CC(=O)N1CCOc2ccc(Nc3ncc4cc(-c5c(C)cc[nH]c5=O)ccc4n3)cc21 [Example 42],
,,,< 100,≥ 2500,C=CC(=O)N(CCN(C)C)c1cccc(Nc2ncc3cc(-c4c(C)cc[nH]c4=O)ccc3n2)c1 [Example 43],
,,,< 100,< 500,[2H]C([2H])([2H])N(C(=O)C=C)c1cccc(Nc2ncc3cc(-c4c(C)cc[nH]c4=O)ccc3n2)c1 [Example 44],particularly excellent inhibitory effects
,,,< 100,< 500,[2H]C([2H])=C([2H])C(=O)N(C)c1cccc(Nc2ncc3cc(-c4c(C)cc[nH]c4=O)ccc3n2)c1 [Example 45],particularly excellent inhibitory effects
,,,< 100,< 500,[2H]C([2H])=C([2H])C(=O)N(c1cccc(Nc2ncc3cc(-c4c(C)cc[nH]c4=O)ccc3n2)c1)C([2H])([2H])[2H] [Example 46],particularly excellent inhibitory effects
,,,< 100,< 500,[2H]C([2H])([2H])C([2H])([2H])N(C(=O)C=C)c1cccc(Nc2ncc3cc(-c4c(C)cc[nH]c4=O)ccc3n2)c1 [Example 47],
,,,< 100,< 500,[2H]C([2H])=C([2H])C(=O)N(CC)c1cccc(Nc2ncc3cc(-c4c(C)cc[nH]c4=O)ccc3n2)c1 [Example 48],
,,,< 100,< 500,[2H]C([2H])=C([2H])C(=O)N(c1cccc(Nc2ncc3cc(-c4c(C)cc[nH]c4=O)ccc3n2)c1)C([2H])([2H])C([2H])([2H])[2H] [Example 49],
,,,< 100,< 500,[2H]C([2H])=C([2H])C(=O)N(CCOC)c1cccc(Nc2ncc3cc(-c4c(C)cc[nH]c4=O)ccc3n2)c1 [Example 50],particularly excellent inhibitory effects
